This passage reports melting point results from patent publication US7109150B2, “Trifluoromethylpyrrolecarboxamides and trifluoromethylpyrrolethioamides as fungicides” (Syngenta Crop Protection, Inc., priority 1999, dated 2006).

In general, melting point refers to the temperature, or range, at which the solid turns liquid. `Cn1cc(C(=O)Nc2ccccc2-c2ccc(Cl)s2)c(C(F)(F)F)c1` [Example 3, 1-Methyl-4-trifluoromethyl-1H-pyrrole-3-carboxylic acid [2′-(5′-chloro-thienyl)-2-benzamide]] registered a melting point of 139 to 141 °C.
